# pIC50: −log10 of the molar value.
# Tests used:
# human PLK4 = target: T1, human PLK4 (Homo sapiens, UniProt O00444); assay: PLK4 Inhibition Assay (indirect ELISA); format: biochemical; conditions: 15 μM ATP, 4 nM GST-PLK4; read-out: PLK4 IC50 Ranges
# T1 construct: amino terminal GST fusion of residues 1-391 of human PLK4; made in house; host or cells: E. coli
# T1 sequence (O00444 1-391): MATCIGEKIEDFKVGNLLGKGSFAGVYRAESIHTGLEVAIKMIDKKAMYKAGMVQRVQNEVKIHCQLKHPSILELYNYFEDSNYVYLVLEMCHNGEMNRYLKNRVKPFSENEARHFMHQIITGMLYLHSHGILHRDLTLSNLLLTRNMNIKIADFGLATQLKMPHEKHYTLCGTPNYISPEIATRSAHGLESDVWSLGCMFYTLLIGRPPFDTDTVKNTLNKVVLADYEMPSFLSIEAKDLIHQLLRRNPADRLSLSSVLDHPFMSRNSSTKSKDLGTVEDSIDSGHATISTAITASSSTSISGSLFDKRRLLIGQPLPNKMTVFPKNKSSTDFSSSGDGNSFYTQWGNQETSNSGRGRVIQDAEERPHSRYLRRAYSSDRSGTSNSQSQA
# Method in brief: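 Dephosphorylated (lambda phosphatase) GST-PLK4 activity read by indirect ELISA. Compounds were pre-incubated with enzyme for 15 minutes before ATP was added. IC50 came from a non-linear 4-point logistic fit.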
# [1] = test system: MDA-MB-468 basal breast cancer cell line; assay: Cell growth inhibition, Sulforhodamine B assay (SRB); format: cell-based; conditions: Homo sapiens, MDA-MB-468, 120 h; 5 days culture, SRB; read-out: Cell Line GI50 Range, MDA-MB-468
# Experimental: (§1) Breast cancer cells (MCF-7, MDA-MB-468, HCC1954), colon cancer cells (SW620) and lung cancer cells (A549), together with human mammary epithelial primary cells (HMEC), were seeded (1000 to 4000 per 80 μl per well depending on the cell growth rate) into 96 well plates, 24 hours before compound overlay. Compounds were prepared as 10 mM stock solutions in 100% DMSO which were diluted with DMEM (Dulbecco's Modified Eagle's Medium) cell growth Medium (Invitrogen, Burlington, ON, Canada) containing 10% FBS (Fetal Bovine Serum) to concentrations ranging from 50 nM to 250 μM. Aliquots (20 μl) from each concentration were overlaid to 80 μl of the pre-seeded cells in the 96 well plates to make final concentrations of 10 nM to 50 μM. The cells were cultured for 5 days before the Sulforhodamine B assay (SRB) was performed to determine the compound's cell growth inhibition activity.
# (§2) Sulforhodamine B (purchased from Sigma, Oakville, ON, Canada) is a water-soluble dye that binds to the basic amino acids of the cellular proteins. Thus, colorimetric measurement of the bound dye provides an estimate of the total protein mass that is related to the cell number. the cells are fixed in situ by gently aspirating off the culture media and adding 50 μl ice cold 10% Tri-chloroacetic Acid (TCA) per well and incubate at 4° C. for 30-60 min, The plates are washed with water five times and allowed to air dry for 5 min. Addition of 50 μl 0.4% (w/v) SRB solution in 1% (v/v) acetic acid to each well and incubatation for 30 min at RT completes the staining reaction. Following staining, plates are washed four times with 1% acetic acid to remove unbound dye and then allowed to air dry for 5 min. The stain is solubilized with 100 μl of 10 mM Tris pH10.5 per well. Absorbance is read at 570 nm.
# (§3) The percentage (%) of relative growth inhibition was calculated by comparing to DMSO treated only cells (100%). GI50's were determined for compounds with cytotoxic activity. The GI50 was calculated using GraphPad PRISM software (GraphPad Software, Inc., San Diego, Calif., USA).
# [2] = test system: MCF-7 luminal breast cancer cell line; assay: as above; format: cell-based; conditions: Homo sapiens, MCF7, 120 h; 5 days culture, SRB; read-out: Cell Line GI50 Range, MCF-7
# Experimental: as §1, §2, §3
# PLK1 = target: T2, PLK1 (Homo sapiens, UniProt P53350); assay: PLK1 Inhibition Assay (Z-Lyte); format: biochemical; conditions: for pIC50: 25 μM ATP, 8 nM PLK1, read-out: PLK1 IC50 Ranges; for inhibition at 10 µM: 10 μM compound, read-out: PLK1 relative inhibition percentage at a dose of 10 μM
# T2 construct: purchased Invitrogen PV3501
# Experimental: PLK1 inhibition was determined using the Z-Lyte assay kit from Invitrogen (cat #PV3802). […] The % inhibition values were determined according to the manufacturer's directions and IC50 values were obtained using a non-linear 4 point logistic curve fit (XLfit4, IDBS)
# [3] = test system: HCC1954 basal breast cancer cell line; assay: Cell growth inhibition, Sulforhodamine B assay (SRB); format: cell-based; conditions: Homo sapiens, HCC1954, 120 h, 5 days culture, read-out: Cell Line GI50 Range, HCC-1954
# Experimental: as §1, §2, §3
# SW620 colon cancer cells = assay: as above; format: cell-based; conditions: Homo sapiens, SW-620, 120 h, 5 days culture, read-out: Cell Line GI50 Range, SW-620
# Experimental: as §1, §2, §3
# A549 lung cancer cells = assay: as above; format: cell-based; conditions: Homo sapiens, A549, 120 h, 5 days culture, read-out: Cell Line GI50 Range, A-549
# Experimental: as §1, §2, §3
# Aurora B = target: T3, Aurora B (Homo sapiens, UniProt Q96GD4); assay: Aurora B Inhibition Assay (Z-Lyte); format: biochemical; conditions: for pIC50: 128 μM ATP, 28 nM Aurora B, read-out: Aurora B IC50 Ranges
# T3 construct: purchased Invitrogen PV3970
# Experimental: (§4) Aurora B inhibition was determined using the Z-Lyte assay kit from Invitrogen. The assay was performed using the recommended manufacturer's instructions with 128 μM ATP and 28 nM Aurora B (Invitrogen cat #PV3970). The % inhibition values were determined according to the manufacturer's directions and IC50 values were obtained using a non-linear 4 point logistic curve fit (XLfit4, IDBS)
# PLK2 = target: T4, PLK2 (Homo sapiens, UniProt Q9NYY3); assay: PLK2 Inhibition Assay (Z-Lyte); format: biochemical; conditions: for inhibition at 10 µM: 10 μM compound, read-out: PLK2 relative inhibition percentage at a dose of 10 μM
# T4 construct: purchased Invitrogen PV4204
# Experimental: as §4, with “PLK2” for “Aurora B”, “Invitrogen (cat #PV3802).” for “Invitrogen.”, “60” for “128”, “133” for “28”, “#PV4204).” for “#PV3970).”
# Aurora A = target: T5, Aurora A (Homo sapiens, UniProt O14965); assay: Aurora A Inhibition Assay (Z-Lyte); format: biochemical; conditions: for pIC50: 20 μM ATP, 12 nM Aurora A, read-out: Aurora A IC50 Ranges; for inhibition at 10 µM: 10 μM compound, read-out: Aurora A relative inhibition percentage at a dose of 10 μM
# T5 construct: purchased Invitrogen PV3612
# T5 sequence (O14965 1-403): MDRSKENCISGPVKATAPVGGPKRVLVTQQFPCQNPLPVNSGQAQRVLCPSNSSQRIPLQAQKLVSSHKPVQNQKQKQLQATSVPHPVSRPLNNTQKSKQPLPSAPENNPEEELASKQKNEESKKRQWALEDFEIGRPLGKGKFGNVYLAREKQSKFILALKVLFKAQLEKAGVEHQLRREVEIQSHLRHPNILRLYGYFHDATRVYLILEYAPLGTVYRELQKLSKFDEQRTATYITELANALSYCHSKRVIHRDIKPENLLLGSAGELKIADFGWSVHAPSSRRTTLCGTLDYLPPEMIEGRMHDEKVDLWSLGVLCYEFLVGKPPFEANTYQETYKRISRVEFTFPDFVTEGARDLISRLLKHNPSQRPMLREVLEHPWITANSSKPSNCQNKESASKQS
# Experimental: as §4, with “Aurora A” for “Aurora B”, “with 20” for “with 128”, “and 12” for “and 28”, “cat #PV3612).” for “cat #PV3970).”
# T3 sequence (Q96GD4 whole entry): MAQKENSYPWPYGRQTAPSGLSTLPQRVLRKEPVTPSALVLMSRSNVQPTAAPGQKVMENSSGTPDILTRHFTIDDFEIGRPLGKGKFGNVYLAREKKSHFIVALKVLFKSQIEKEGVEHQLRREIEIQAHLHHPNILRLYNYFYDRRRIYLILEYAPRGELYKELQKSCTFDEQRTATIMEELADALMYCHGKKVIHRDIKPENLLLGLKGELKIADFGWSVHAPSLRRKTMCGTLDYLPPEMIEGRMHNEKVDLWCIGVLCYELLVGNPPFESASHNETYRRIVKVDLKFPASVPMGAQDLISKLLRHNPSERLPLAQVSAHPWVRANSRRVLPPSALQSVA
# T4 sequence (Q9NYY3 whole entry): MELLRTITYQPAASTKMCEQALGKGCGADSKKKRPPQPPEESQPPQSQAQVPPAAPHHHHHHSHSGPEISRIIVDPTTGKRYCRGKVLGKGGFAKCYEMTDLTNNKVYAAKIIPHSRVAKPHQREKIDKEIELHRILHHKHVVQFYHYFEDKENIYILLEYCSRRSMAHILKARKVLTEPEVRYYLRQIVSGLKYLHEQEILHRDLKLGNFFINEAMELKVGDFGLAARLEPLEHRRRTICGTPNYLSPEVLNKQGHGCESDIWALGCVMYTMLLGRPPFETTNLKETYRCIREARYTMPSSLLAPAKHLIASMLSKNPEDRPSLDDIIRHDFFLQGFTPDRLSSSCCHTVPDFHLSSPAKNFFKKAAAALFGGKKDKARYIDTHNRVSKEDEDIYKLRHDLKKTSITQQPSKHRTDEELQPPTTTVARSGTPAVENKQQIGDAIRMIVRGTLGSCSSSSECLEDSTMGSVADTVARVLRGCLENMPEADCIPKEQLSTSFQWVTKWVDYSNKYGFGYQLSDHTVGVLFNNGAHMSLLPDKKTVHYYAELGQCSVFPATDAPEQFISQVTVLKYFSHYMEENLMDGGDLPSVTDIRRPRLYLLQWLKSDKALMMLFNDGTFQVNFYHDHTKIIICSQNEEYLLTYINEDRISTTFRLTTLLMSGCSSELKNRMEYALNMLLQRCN
# T2 sequence (P53350 whole entry): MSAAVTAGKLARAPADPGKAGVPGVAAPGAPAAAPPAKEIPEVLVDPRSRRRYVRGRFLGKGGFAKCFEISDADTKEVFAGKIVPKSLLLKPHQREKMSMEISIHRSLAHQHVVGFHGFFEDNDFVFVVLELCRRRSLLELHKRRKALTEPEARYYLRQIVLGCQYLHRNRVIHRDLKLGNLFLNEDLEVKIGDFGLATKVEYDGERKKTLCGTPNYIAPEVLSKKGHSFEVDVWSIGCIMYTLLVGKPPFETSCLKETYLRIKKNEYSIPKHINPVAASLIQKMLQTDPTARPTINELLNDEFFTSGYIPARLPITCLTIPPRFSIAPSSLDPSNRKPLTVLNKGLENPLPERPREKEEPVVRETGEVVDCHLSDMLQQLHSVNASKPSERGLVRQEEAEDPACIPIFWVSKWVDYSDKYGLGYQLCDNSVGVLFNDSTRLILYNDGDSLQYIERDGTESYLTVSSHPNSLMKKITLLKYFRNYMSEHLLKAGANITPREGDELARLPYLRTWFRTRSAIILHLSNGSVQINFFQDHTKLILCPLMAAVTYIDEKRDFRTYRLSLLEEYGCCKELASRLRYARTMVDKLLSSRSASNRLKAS
pIC50 (human PLK4),GI50 [1] [µM],GI50 [2] [µM],pIC50 (PLK1),GI50 [3] [µM],GI50 (SW620 colon cancer cells) [µM],GI50 (A549 lung cancer cells) [µM],pIC50 (Aurora B),inhibition at 10 µM (PLK2) [%],pIC50 (Aurora A),inhibition at 10 µM (PLK1) [%],inhibition at 10 µM (Aurora A) [%],"inhibition at 10 µM (Aurora B; 10 μM compound, read-out: Aurora B relative inhibition percentage at a dose of 10 μM) [%]","pIC50 (PLK2; 60 μM ATP, 133 nM PLK2, read-out: PLK2 IC50 Ranges)",Compound
4.30 to 5.30,< 5,5 to 20,4.30 to 5.30,–,–,–,–,–,–,–,–,–,–,"O=C1Nc2ccccc2/C1=C\c1ccc2[nH]cnc2c1 [Example A19, (E)-3-((1H-benzo[d]imidazol-5-yl)methylene)indolin-2-one]"
> 5.30,5 to 20,20 to 50,–,> 50,20 to 50,> 50,–,–,–,–,–,–,–,"O=C1Nc2ccccc2/C1=C\c1ccc2c(C#Cc3cccnc3)n[nH]c2c1 [Example A147, (E)-3-((3-(pyridin-3-ylethynyl)-1H-indazol-6-yl)methylene)indolin-2-one]"
> 5.30,< 5,< 5,–,5 to 20,< 5,5 to 20,> 5.30,< 50,> 5.30,< 50,–,–,–,"COc1ccccc1/C=C/c1n[nH]c2cc(C=C3C(=O)Nc4ccccc43)ccc12 (mixture of isomers) [Example A59, (E and Z)-3-((3-((E)-2-methoxystyryl)-1H-indazol-6-yl)methylene)-indolin-2-one]"
> 5.30,< 5,< 5,–,< 5,< 5,< 5,–,–,–,–,–,–,–,"CN1CCN(c2ccc(-c3n[nH]c4cc(C=C5C(=O)Nc6ccc(Br)cc65)ccc34)cn2)CC1 (mixture of isomers) [Example A150, (E and Z)-5-bromo-3-((3-(6-(4-methylpiperazin-1-yl)pyridin-3-yl)-1H-indazol-6-yl)methylene)indolin-2-one]"
> 5.30,5 to 20,5 to 20,4.30 to 5.30,–,–,–,> 5.30,< 50,–,–,> 50,–,–,"O=C1Nc2ccc(F)cc2/C1=C/c1ccc2cn[nH]c2c1 [Example A32, (Z)-3-((1H-indazol-6-yl)methylene)-5-fluoroindolin-2-one]"
> 5.30,< 5,< 5,–,< 5,< 5,< 5,> 5.30,–,–,< 50,> 50,–,–,"CN1CCN(c2ccc(-c3n[nH]c4cc(C=C5C(=O)Nc6ccccc65)ccc34)cn2)CC1 (mixture of isomers) [Example A96, (E and Z)-3-((3-(6-(4-methylpiperazin-1-yl)pyridin-3-yl)-1H-indazol-6-yl)methylene)indolin-2-one]"
4.30 to 5.30,5 to 20,5 to 20,4.30 to 5.30,–,–,–,–,–,–,–,–,–,–,"O=C1Nc2cc(Cl)ccc2/C1=C\c1ccc2[nH]nnc2c1 [Example A4, (E)-3-((1H-benzo[d][1,2,3]triazol-5-yl)methylene)-6-chloroindolin-2-one]"
> 5.30,20 to 50,20 to 50,> 5.30,–,–,–,–,–,–,–,–,–,–,"CNC(=O)c1ccc2c(c1)NC(=O)C2=Cc1ccc2cn[nH]c2c1 (mixture of isomers) [Example A10, (E and Z)-(3-((1H-indazol-6-yl)methylene)-N-methyl-2-oxoindoline-6-carboxamide]"
> 5.30,< 5,< 5,< 4.30,–,–,–,–,–,–,–,< 50,> 50,4.30 to 5.30,"O=C1Nc2ccc(Br)cc2/C1=C\c1ccc2[nH]ncc2c1 [Example A31, (E)-3-((1H-indazol-5-yl)methylene)-5-bromoindolin-2-one]"
> 5.30,–,–,–,–,–,–,> 5.30,< 50,–,< 50,> 50,–,–,"O=C1Nc2ncccc2/C1=C\c1ccc2c(/C=C/c3ccncc3)n[nH]c2c1 [Example A101, (E)-3-((3-((E)-2-(pyridin-4-yl)vinyl)-1H-indazol-6-yl)methylene)-1H-pyrrolo[2,3-b]pyridin-2(3H)-one]"
> 5.30,–,–,4.30 to 5.30,–,–,–,4.30 to 5.30,> 50,–,–,< 50,–,–,"O=C1Nc2ccc(Br)cc2/C1=C\c1ccc2[nH]nnc2c1 [Example A3, (E)-3-((1H-benzo[d][1,2,3]triazol-5-yl)methylene)-5-bromoindolin-2-one]"
> 5.30,–,–,–,–,–,–,> 5.30,< 50,> 5.30,< 50,–,–,–,"O=C1Nc2ccc(Cl)cc2/C1=C\c1ccc2cn[nH]c2c1 [Example A80, (E)-3-((1H-indazol-6-yl)methylene)-5-chloroindolin-2-one]"
> 5.30,–,–,–,–,–,–,> 5.30,< 50,> 5.30,< 50,–,–,–,"O=C1Nc2ccc(Br)cc2/C1=C\c1ccc2c(/C=C/c3ccncc3)n[nH]c2c1 [Example A62, (E)-5-bromo-3-((3-((E)-2-(pyridin-4-yl)vinyl)-1H-indazol-6-yl)-methylene)indolin-2-one]"
